We go through two molecules from ChEMBL document CHEMBL1154222, “Ceratodictyols, 1-glyceryl ethers from the red alga-sponge association Ceratodictyon spongiosum/Haliclona cymaeformis” (J Nat Prod, 2009).

In the experiment the test system is HeLa. As to the kind of experiment: Cytotoxicity against human HeLa cells. The experiment is classed as functional, cell-based.

As for `CCCCCCCCCCC(=O)/C=C/CCCOC[C@@H](O)CO` [CERATODICTYOL A], the IC50 – broadly, the point on the concentration scale where inhibition reaches its midpoint – stood at 67 µM.
In the case of `CCCCCCCCC/C=C/C(=O)CCCCOC[C@@H](O)CO` [CERATODICTYOL B] it was 67 µM.
